Measured values published in patent US12590118B2, “Salt and crystal form of steroid derivative regulator” (Shanghai Hansoh Biomedical Co., Ltd., priority 2019, dated 2026).

Assays:
[1] = molecular target: T1, human GABAA receptor α1, β2 and γ2 subunit (HEK293T cell line) (Homo sapiens, UniProt P14867+P47870); experiment: Positive regulatory effect on GABAA receptor, manual patch clamp; assay type: cell-based; settings: whole-cell current, 1 μM GABA
T1 construct: expressed in transfected cells
Experimental: The objective of this test example is to determine the positive regulatory effect of the compound on GABAA receptor by the electrophysiological manual patch clamp method.
Manual patch clamp system HEKA EPC10 USB signal amplifier and digital conversion system (purchased from HEKA Electronics, Germany), centrifuge (Eppendorf, etc.), carbon dioxide incubator (purchased from Thermo, etc.), biological safety cabinet (Thermo, etc.), pipette (purchased from Eppendorf, etc.).
The cells were grown in a culture dish with DMEM medium (purchased from Invitrogen), and cultured in an incubator at 37° C. and 5% CO2. Before the electrophysiological experiment, the cells were transferred to a round glass slide placed in the culture dish, and grown in the same culture medium and under the same culture condition as above. The density of cells on each round glass slide should meet the requirement that most cells were independent and individual.
Each test compound was diluted in gradient with DMSO to obtain a stock solution, which was then diluted with extracellular fluid by 1,000-fold to obtain the final test concentration. The final concentration of DMSO in the compound solution with each concentration was 0.1%. The experiment used the manual patch clamp system HEKA EPC10 USB signal amplifier and digital conversion system for whole cell current recording. The round glass slide with HEK293T GABAA cells grown on the surface was taken out of the culture dish, and placed in the electrophysiological recording tank under the inverted microscope. The recording tank was continuously perfused with extracellular fluid. During the experiment, the whole-cell current recording technology was used to record the chloride current of the GABAA channel. 1 μM GABA was used to activate the chloride current of the GABAA channel of each cell as an initial control. 1 μM GABA acted on the cell through the drug perfusion system to induce the chloride current of the GABAA channel, the action time was about 3 to 5 seconds, and the current value was used as the initial control value. The test concentration of compound was perfused and incubated for 2 to 5 minutes. […] GABA solution (mixed with the test concentration of compound) was given to the cells to observe the enhancement effect of the test compound on the current induced by 1 μM GABA. When the cell state was stable, the test compound acted on the same cell from low to high concentration to record the enhancement effect of the induced current.
The experimental data was analyzed by HEKA Patchmaster, Microsoft Excel and the data analysis software provided by Graphpad Prism.

[2] = molecular target: GABA-A receptor; experiment: 35S-TBPS binding assay (GABAA receptor binding ability assay); parameters: species or system Sprague-Dawley rat; settings: rat cerebral cortex cell membrane, 5 μM GABA, 2 nM 35S-TBPS; read-out: IC50 on inhibiting the TBPS binding activity, 35S-TBPS bindng assay
Experimental: 1. The cerebral cortex of male Sprague-Dawley rat was isolated.
2. A pre-chilled 0.32 M sucrose solution (one tablet of protease inhibitor was added per 100 mL) was added to the cerebral cortex (the volume of sucrose solution was 10 times the volume of the cerebral cortex). The mixture was crushed with a 50 mL glass tissue homogenizer in batches and mixed well.
3. The mixture was centrifuged at 1,500 g, 4° C. for 10 minutes, and the supernatant was collected.
4. The mixture was centrifuged at 20,000 g, 4° C. for 30 minutes, and the supernatant was discarded.
5. The precipitate was resuspended with the pre-chilled phosphate buffer saline (PBS) (one tablet of protease inhibitor was added per 100 mL). An average of 4 mL of PBS was added per rat, and the mixture was mixed well with a glass tissue homogenizer.
6. The mixture was centrifuged at 10,000 g, 4° C. for 10 minutes, and the supernatant was discarded.
7. Steps 5 and 6 were repeated three times.
8. Finally, the precipitate was resuspended with 4 volumes of PBS. The resulting solution was dispensed, frozen in liquid nitrogen, and stored at −80° C.
9. The protein concentration was measured by the bicinchoninic acid (BCA) method.
1. 230 μL of PBS was added to each well of a well plate with 1.1 mL volume.
2. 60 μL of the cerebral cortex cell membrane (5 μg/μL) solution was added to each well, and the mixture was mixed well.
3. The test compound (3 μL per well) was added, and the plate was incubated at 25° C. for 5 minutes. The DMSO concentration was 1%. The initial compound concentration was […], and a
3-fold dilution in gradient was carried out to obtain a total of 8 gradients and 2 replicates. 1% DMSO was used as a negative control, and 10 μM P026-2 was used as a positive control.
4. GABA was added at a final concentration of 5 μM, and incubated at 25° C. for 5 minutes. 1 mM GABA solution was formulated, and 1.5 μL of the solution was added to each well.
5. 35S-TBPS was added at a final concentration of 2 nM. The concentration of isotope mother solution was 9.7 μM. After dilution with PBS for 100 times, 6 μL of the diluted isotope solution was added to each well.
6. The plate was incubated at 4° C. for 20 hours.
7. The FilterMate GF/C plate was pre-treated with 0.5% PEI, and incubated at 4° C. for 1 hour.
8. The FilterMate GF/C plate was washed with Universal Harvester twice, 50 mL PBS each time.
9. The reaction solution was transferred to the GF/C plate, and each well was washed 4 times with 900 μL of PBS.
10. The washed GF/C plate was placed at 55° C. and dried for 10 minutes.
11. 40 μL of scintillation solution was added to each well, and the CPM value was read with TopCount.
In the experiment, the CPM (counts per minute) value was read with TopCount. According to the readings of the High control (DMSO) and the Low control (10 μM of the positive compound) experimental groups, the % inhibition was calculated based on the following formula: % Inhibition=100×(CPMHigh control−CPMsample)/(CPMHigh control−CPMLow control)
The IC50 of the compound was calculated according to the following 4-parameter nonlinear logic formula: Y=Bottom+(Top−Bottom)/(1+10^((Log IC50−X)*HillSlope)),
wherein: • X represents the log of compound concentration, • Y represents the % Inhibition.
The effect of the compound of the present invention on the TBPS binding activity was determined by the above test, and the measured IC50 values are shown in Table 5.

[3] = tested on: ICR mice; experiment: Forced swimming model in mice; assay type: in vivo; settings: for Mean (immobility, %): floating time/240 s; for Mean (immobility, s): latter four minutes of 6 min swim; for immobility time during the latter four minutes compared with that of the model group: forced swimming, ICR mice
Experimental: The antidepressant effect of the compound was evaluated by the forced swimming model in mice.
Compounds of Examples 1 to 3, Example 9, Example 40, Example 41, Examples 48 to 52, Example 90 and Example 98 of the present invention, prepared by the applicant.
Male ICR mice (25-35 g) were adapted in the experiment environment for 3 days before the forced swimming test.
According to the experiment design, the mice were randomly grouped on the day before the experiment according to body weight, with 12 mice in each group. Before the test, the compounds of each example were administered intragastrically according to the Tmax thereof in the brain in mice pharmacokinetic experiment.
Respectively: • 1) Model group (0.5% CMC-Na-1% Tween 80 solution, p.o., 10 mL/kg); • 2) Compounds of Examples 1 to 3, Example 40, Example 41, Examples 48 to 51, Example 90 and Example 98 (10 mg/kg, p.o., 10 mL/kg); Example 9 and Example 52 (5 mg/kg, p.o., 5 mL/kg).
When being administered, the compounds of each example were suspended in 0.5% CMC-Na+1% Tween 80 solution to the desired concentration.
0.5-1 hour after administration, ICR mice were placed in a forced swimming device (transparent glass drum (water depth 18 cm, water temperature 25-26° C.), one mouse per tank) and forced to swim for 6 minutes. The forced swimming device recorded the floating time of the ICR mice during the entire 6 minutes, and the data of the latter four minutes were used for data analysis. The mice were taken out immediately after the swimming experiment, wiped dry and put back in their original cages.
Note: The criterion for determining the immobility time is that the mouse stops struggling in water and floats, and there are only slight limb movements to keep the head floating on the water.
3.4 Data Analysis Floating time percentage=100*floating time/240 s.

T1 sequence (P14867 28-456): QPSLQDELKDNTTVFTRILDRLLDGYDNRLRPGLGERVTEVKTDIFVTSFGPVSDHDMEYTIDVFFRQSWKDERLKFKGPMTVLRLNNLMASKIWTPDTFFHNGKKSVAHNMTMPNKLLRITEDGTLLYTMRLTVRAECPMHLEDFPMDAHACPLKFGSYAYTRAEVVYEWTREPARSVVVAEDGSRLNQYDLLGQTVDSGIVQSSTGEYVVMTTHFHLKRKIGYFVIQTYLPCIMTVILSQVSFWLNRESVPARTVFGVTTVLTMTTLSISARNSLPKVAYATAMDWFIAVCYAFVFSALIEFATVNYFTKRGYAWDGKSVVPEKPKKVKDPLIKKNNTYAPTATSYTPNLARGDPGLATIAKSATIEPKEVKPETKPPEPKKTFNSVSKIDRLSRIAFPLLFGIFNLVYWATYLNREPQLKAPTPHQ
T1 sequence (P47870 25-512 limits assumed): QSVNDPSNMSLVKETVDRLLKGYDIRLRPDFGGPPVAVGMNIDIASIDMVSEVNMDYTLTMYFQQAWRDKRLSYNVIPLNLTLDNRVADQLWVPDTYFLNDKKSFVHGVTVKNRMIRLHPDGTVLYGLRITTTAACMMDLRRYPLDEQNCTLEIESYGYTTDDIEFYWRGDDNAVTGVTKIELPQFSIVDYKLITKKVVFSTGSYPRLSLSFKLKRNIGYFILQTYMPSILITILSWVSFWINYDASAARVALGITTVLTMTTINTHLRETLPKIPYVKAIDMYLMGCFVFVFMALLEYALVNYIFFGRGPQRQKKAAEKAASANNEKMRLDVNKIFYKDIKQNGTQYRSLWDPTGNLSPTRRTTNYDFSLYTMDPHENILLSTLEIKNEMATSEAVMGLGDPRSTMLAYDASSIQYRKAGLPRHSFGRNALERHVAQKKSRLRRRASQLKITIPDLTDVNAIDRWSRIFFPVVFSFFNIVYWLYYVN
T1 sequence (P18507 40-475 partner): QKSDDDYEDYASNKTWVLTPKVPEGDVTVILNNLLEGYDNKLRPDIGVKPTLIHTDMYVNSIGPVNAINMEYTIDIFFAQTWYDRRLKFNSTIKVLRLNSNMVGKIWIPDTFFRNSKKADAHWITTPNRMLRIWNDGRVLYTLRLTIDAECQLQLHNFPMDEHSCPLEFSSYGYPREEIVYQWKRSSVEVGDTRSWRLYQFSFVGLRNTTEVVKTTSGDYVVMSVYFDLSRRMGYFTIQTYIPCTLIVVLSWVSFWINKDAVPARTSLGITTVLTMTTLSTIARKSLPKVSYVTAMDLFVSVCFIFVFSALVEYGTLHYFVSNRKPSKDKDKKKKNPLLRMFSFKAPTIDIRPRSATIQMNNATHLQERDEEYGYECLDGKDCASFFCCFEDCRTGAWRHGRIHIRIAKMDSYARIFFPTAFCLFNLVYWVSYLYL

| Structure (SMILES) | EC50 [1] [nM] | IC50 [2] [nM] | Mean (immobility, %) ([3]; dose 10 mpk p.o.) [%] | Mean (immobility, s) ([3]; dose 10 mpk p.o.) [s] | Mean (immobility, %) ([3]; dose 5 mpk p.o.) [%] | Mean (immobility, s) ([3]; dose 5 mpk p.o.) [s] | immobility time during the latter four minutes compared with that of the model group [3] |
| --- | --- | --- | --- | --- | --- | --- | --- |
| C[C@@]1(O)CC[C@H]2[C@H](CC[C@@H]3[C@@H]2CC[C@@]2(C)[C@H]3[C@H](C3CC3)C[C@@H]2C(=O)Cn2nc(C#N)cc2C#N)C1 [Example 96, 1-(2-((3R,5R,8R,9R,10S,13S,14S,15S,17S)-15-Cyclopropyl-3-hydroxy-3,13-dimethylhexadecahydro-1H-cyclopenta[a]phenanthren-17-yl)-2-oxoethyl)-1H-pyrazole-3,5-dicarbonitrile] | 84 | 28.5 |  |  |  |  |  |
| C[C@@]1(O)CC[C@H]2[C@H](CC[C@@H]3[C@@H]2CC[C@]2(C)C(C(=O)Cn4cc(C#N)cn4)C[C@@H](C4CC4)[C@@H]32)C1 (stereo partly drawn) [Example 48, 1-(2-((3R,5R,8R,9R,10S,13S,14S,15S)-15-Cyclopropyl-3-hydroxy-3,13-dimethylhexadecahydro-1H-cyclopenta[a]phenanthren-17-yl)-2-oxoethyl)-1H-pyrazole-4-carbonitrile] |  | 7.5 | 55.92 | 134.21 |  |  |  |
| C[C@@H]1C[C@H](C(=O)Cn2ccc(C(F)(F)F)n2)[C@@]2(C)CC[C@H]3[C@@H](CC[C@@H]4C[C@](C)(O)CC[C@@H]43)[C@H]12 [Example 86, 1-((3R,5R,8R,9R,10S,13S,14S,15R,17S)-3-Hydroxy-3,13,15-trimethylhexadecahydro-1H-cyclopenta[a]phenanthren-17-yl)-2-(3-(trifluoromethyl)-1H-pyrazol-1-yl)ethan-1-one] | 74 | 8 |  |  |  |  |  |
| C[C@@]1(O)CC[C@H]2[C@H](CC[C@@H]3[C@@H]2CC[C@@]2(C)[C@H]3[C@@H]3C[C@@H]3[C@@H]2C(=O)Cn2cc(C(F)(F)F)cn2)C1 [Example 3, 1-((2R,4aS,4bR,6aS,7S,7aS,8aR,8bR,8cR,10aR)-2-Hydroxy-2,6a-dimethyloctadecahydrocyclopropa[4,5]cyclopenta[1,2-a]phenanthren-7-yl)-2-(4-(trifluoromethyl)-1H-pyrazol-1-yl)ethan-1-one] |  | 13.5 | 59.93 | 143.81 |  |  |  |
| C[C@@]1(O)CC[C@H]2[C@H](CC[C@@H]3[C@@H]2CC[C@@]2(C)[C@H]3[C@@H]3C[C@@H]3[C@@H]2C(=O)Cn2cc(C#N)cn2)C1 [Example 1, 1-(2-((2R,4aS,4bR,6aS,7S,7aS,8aR,8bR,8cR,10aR)-2-hydroxy-2,6a-dimethyloctadecahydrocyclopropa[4,5]cyclopenta[1,2-a]phenanthren-7-yl)-2-oxoethyl)-1H-pyrazole-4-carbonitrile] |  | 24.3 | 54.26 | 130.22 |  |  |  |
| C[C@@]1(O)CC[C@H]2[C@H](CC[C@@H]3[C@@H]2CC[C@@]2(C)[C@H]3[C@H](C3CC3)C[C@@H]2C(=O)Cn2ncnn2)C1 [Example 98, 1-((3R,5R,8R,9R,10S,13S,14S,15S,17S)-15-Cyclopropyl-3-hydroxy-3,13-dimethylhexadecahydro-1H-cyclopenta[a]phenanthren-17-yl)-2-(2H-tetrazol-2-yl)ethan-1-one] |  | 21.4 |  |  | 33.54 | 80.5 | very significantly different |
| CC[C@@H]1C[C@H](C(=O)Cn2ccc(C#N)n2)[C@@]2(C)CC[C@H]3[C@@H](CC[C@@H]4C[C@](C)(O)CC[C@@H]43)[C@H]12 [Example 90, 1-(2-((3R,5R,8R,9R,10S,13S,14S,15R,17S)-15-Ethyl-3-hydroxy-3,13-dimethylhexadecahydro-1H-cyclopenta[a]phenanthren-17-yl)-2-oxoethyl)-1H-pyrazole-3-carbonitrile] |  | 16.2 | 36.92 | 88.61 |  |  | very significantly different |
| C[C@@]1(O)CC[C@H]2[C@H](CC[C@@H]3[C@@H]2CC[C@@]2(C)[C@H]3[C@H](C3CC3)C[C@@H]2C(=O)Cn2ccc(C#N)n2)C1 [Example 49, 1-(2-((3R,5R,8R,9R,10S,13S,14S,15S,17S)-15-Cyclopropyl-3-hydroxy-3,13-dimethylhexadecahydro-1H-cyclopenta[a]phenanthren-17-yl)-2-oxoethyl)-1H-pyrazole-3-carbonitrile] |  |  | 35.74 | 85.77 |  |  | very significantly different |
